Measured values: patent US20150335657A1, “Methods for Modulating Sirtuin Enzymes” (The Trustees of Princeton University, priority 2014, published 2015)

Assays:
SIRT6 = target: T1, SIRT6 (Homo sapiens, UniProt Q8N6T7); test: Sirtuin deacetylase enzyme activity assay (Cayman Chemical), compound screen; assay type: biochemical; conditions: compound at 50 μM; Z-score of change in fluorescent signal; + increase, − decrease
T1 construct: purchased Cayman Chemical
Excerpt: (§1) Sirtuins have been identified as innate viral restriction factors and it has been previously shown that drugs that modulate the activity of these enzymes block the production of multiple viruses in culture (see, e.g., WO 2012/106509). Sirtuins are NAD-dependent enzymes that regulate the activity of target proteins by post-translational modifications and thereby control key cellular events (see, e.g., Haigis and Sinclair (2010) Ann Rev Pathol Mech Dis 5:253-95). SIRT1, SIRT2, SIRT3 and SIRT6 have shown a detectable deacetylase activity in well-established biochemical assays that utilize recombinant SIRT1, SIRT2, SIRT3, and SIRT6 enzymes and fluorophore-conjugated acetyl-peptides. As described in the Examples below, the deacetylase activity of these sirtuins were used as a surrogate to identify compounds having broad-range antiviral activity.
(§2) A publically disclosed, small molecule library consisting of approximately 13,000 compounds was screened using a commercially available (Cayman Chemical) enzyme activity assay. Deacetylase activity of sirtuins SIRT1, SIRT2, SIRT3, and SIRT6 was used as a surrogate to identify compounds with the potential for having broad-range antiviral activity. The compounds were tested at a single concentration (50 μM) in microtiter plates and their activity against the four sirtuins was recorded as a change in fluorescent signal intensity. […] Activation of sirtuin activity generated positive Z-scores and inhibition of sirtuin activity produced negative Z-scores.

SIRT2 = target: T2, SIRT2 (Homo sapiens, UniProt Q8IXJ6); test: as above; assay type: biochemical; conditions: compound at 50 μM; Z-score of change in fluorescent signal; + increase, − decrease
T2 construct: purchased Cayman Chemical
T2 sequence (Q8IXJ6 1-389): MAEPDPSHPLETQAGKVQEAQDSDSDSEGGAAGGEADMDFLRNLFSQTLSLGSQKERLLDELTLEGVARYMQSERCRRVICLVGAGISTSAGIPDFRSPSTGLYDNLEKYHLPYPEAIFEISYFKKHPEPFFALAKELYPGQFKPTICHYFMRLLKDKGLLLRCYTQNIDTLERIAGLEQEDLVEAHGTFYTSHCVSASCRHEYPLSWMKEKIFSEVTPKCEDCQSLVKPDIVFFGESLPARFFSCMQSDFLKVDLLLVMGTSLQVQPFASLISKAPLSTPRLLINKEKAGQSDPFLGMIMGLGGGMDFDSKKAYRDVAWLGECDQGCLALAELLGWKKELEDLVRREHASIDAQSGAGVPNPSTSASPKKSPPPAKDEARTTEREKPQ
Excerpt: as §1, §2

SIRT3 = target: T3, SIRT3 (Homo sapiens, UniProt Q9NTG7); test: as above; assay type: biochemical; conditions: compound at 50 μM; Z-score of change in fluorescent signal; + increase, − decrease
T3 construct: purchased Cayman Chemical
T3 sequence (Q9NTG7 1-399): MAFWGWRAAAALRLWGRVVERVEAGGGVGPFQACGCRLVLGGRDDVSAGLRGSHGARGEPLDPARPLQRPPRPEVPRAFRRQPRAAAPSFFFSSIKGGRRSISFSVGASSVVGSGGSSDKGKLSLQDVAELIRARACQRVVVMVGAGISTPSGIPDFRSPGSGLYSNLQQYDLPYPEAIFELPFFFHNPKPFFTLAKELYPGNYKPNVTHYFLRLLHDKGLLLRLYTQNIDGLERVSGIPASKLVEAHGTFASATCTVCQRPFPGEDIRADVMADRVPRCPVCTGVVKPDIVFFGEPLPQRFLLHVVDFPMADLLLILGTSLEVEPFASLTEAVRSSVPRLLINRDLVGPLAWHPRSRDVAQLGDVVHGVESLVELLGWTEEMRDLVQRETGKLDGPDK
Excerpt: as §1, §2

SIRT1 = target: T4, SIRT1 (Homo sapiens, UniProt Q96EB6); test: as above; assay type: biochemical; conditions: compound at 50 μM; Z-score of change in fluorescent signal; + increase, − decrease
T4 construct: purchased Cayman Chemical
T4 sequence (Q96EB6 1-747): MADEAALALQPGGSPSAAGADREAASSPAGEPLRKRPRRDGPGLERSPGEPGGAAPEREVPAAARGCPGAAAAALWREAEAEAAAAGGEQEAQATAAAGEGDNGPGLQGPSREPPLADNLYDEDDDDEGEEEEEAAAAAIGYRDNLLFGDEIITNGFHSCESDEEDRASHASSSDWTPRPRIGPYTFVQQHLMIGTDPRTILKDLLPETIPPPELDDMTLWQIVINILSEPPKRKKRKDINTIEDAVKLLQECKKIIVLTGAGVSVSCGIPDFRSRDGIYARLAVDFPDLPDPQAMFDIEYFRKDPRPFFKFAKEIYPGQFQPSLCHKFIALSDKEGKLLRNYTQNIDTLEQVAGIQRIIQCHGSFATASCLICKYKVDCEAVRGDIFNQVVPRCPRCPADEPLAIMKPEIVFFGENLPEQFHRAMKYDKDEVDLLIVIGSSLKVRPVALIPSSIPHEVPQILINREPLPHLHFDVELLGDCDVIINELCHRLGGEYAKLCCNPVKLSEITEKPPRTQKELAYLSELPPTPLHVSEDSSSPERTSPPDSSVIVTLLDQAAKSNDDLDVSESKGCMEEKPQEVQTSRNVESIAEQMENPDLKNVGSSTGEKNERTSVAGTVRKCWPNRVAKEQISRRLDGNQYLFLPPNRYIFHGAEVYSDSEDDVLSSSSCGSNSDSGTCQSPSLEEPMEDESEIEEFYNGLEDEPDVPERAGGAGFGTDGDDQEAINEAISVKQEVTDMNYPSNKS
Excerpt: as §1, §2

[1] = tested on: human cytomegalovirus (HCMV) AD169 strain; test: Antiviral activity against HCMV in MRC5 fibroblasts (virus yield, fluorescent focus assay); assay type: cell-based; conditions: Human betaherpesvirus 5, HCMV AD169, 1 infectious unit/cell, treated 2 h after infection, virus in medium at 96 h
[2] = Tetrazolium-based cell viability assay (cytotoxicity); conditions: human

T1 sequence (Q8N6T7 whole entry): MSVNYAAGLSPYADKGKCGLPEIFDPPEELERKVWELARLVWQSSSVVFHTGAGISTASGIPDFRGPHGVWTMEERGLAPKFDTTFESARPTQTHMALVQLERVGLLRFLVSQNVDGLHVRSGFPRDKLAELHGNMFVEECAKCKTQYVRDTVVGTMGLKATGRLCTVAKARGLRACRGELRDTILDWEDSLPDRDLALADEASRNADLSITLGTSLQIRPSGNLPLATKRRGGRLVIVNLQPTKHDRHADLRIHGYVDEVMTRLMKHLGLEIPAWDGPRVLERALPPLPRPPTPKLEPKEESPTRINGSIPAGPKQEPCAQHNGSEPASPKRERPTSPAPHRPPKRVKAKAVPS

| Compound | SIRT6 (change in sirtuin deacetylase activity, Z-score class) (SIRT6) | SIRT2 (change in sirtuin deacetylase activity, Z-score class) (SIRT2) | SIRT3 (change in sirtuin deacetylase activity, Z-score class) (SIRT3) | SIRT1 (change in sirtuin deacetylase activity, Z-score class) (SIRT1) | IC50 [1] | IC90 [1] | CC50 at 96 h [2] |
| --- | --- | --- | --- | --- | --- | --- | --- |
| COc1ccccc1C(C)C(F)CNc1cnc2ccccc2c1 (stereo not shown) | +++ (Z-score ≧ 3 = +++) | ++ (2 ≦ Z-score < 3 = ++) | na (−2 ≦ Z-score < 2 = no activity (na)) | +++ (Z-score ≧ 3 = +++) | 1.19 µM | 2.24 µM | > 50 µM |
| COc1cccc(CN2C(=O)c3cccnc3N(C)C2C(F)C(C)c2cnc3ccccc3c2)c1 (stereo not shown) | +++ (Z-score ≧ 3 = +++) | +++ (Z-score ≧ 3 = +++) | +++ (Z-score ≧ 3 = +++) | +++ (Z-score ≧ 3 = +++) | 1.54 µM | 15.5 µM | 25 to 50 µM |
| CC(c1ccncc1)c1cnc(N2CCc3ccccc3C2)s1 (stereo not shown) | na (−2 ≦ Z-score < 2 = no activity (na)) | −−− (Z-score ≦ −3 = −−−) | na (−2 ≦ Z-score < 2 = no activity (na)) | na (−2 ≦ Z-score < 2 = no activity (na)) | 28.3 µM | 41.9 µM | > 50 µM |
| Cc1ccc(C(C)C(CN2CCN(C)CC2)Oc2cnccn2)cn1 (stereo not shown) | +++ (Z-score ≧ 3 = +++) | na (−2 ≦ Z-score < 2 = no activity (na)) | na (−2 ≦ Z-score < 2 = no activity (na)) | na (−2 ≦ Z-score < 2 = no activity (na)) | 30.2 µM | 56 µM | > 50 µM |
